How the values were obtained:
Type in all cases: cell-based
αMβ2 integrin = biological target: T1, αMβ2 integrin (Homo sapiens, UniProt P05107+P11215); experiment: αMβ2 integrin-mediated HL60 cell adhesion to Fg; details: HL60 cell adhesion to Fg (10 μg/mL), mean ± SD; for IC50: antagonists
T1 construct: HL60 cells, mainly expressing the leukocyte integrin αMβ2; host or cells: HL60 (PMA-treated)
Description: To this purpose, the ability of the best peptidomimetics to modulate cell adhesion mediated by integrins other than α4β1 was evaluated in HL60 cells, mainly expressing the leukocyte integrin αMβ2, and on K562 cells, mainly expressing α5β1, which shares a β1 subunit with the heterodimer α4β1. […] In contrast, 13 was a moderate promoter of cell adhesion mediated by αMβ2 integrin, behaving as an agonist. Regarding α5β1 integrin, none of the peptidomimetics employed were able to modulate K562 cell adhesion, thus being shown to be completely ineffective toward α5β1 integrin. The reference compound DS-70 was ineffective toward both αMβ2 and α5β1 integrins under the same experimental conditions (Table 3).
The assays were performed as previously described. Briefly, regarding adhesion assays on Jurkat E6.1 or HL-60 cells, black 96-well plates (Corning Costar) were coated overnight at 4 °C with FN or Fg (10 μg/mL) or VCAM-1 (2 μg/mL) in order to investigate α4β1 integrin-mediated cell adhesion. To avoid any kind of unspecific binding, plates were incubated with 100 μL/well of blocking solution (1% BSA in HBSS) for 30 min at 37 °C. Cells were counted, stained with the CellTracker green CMFDA (12.5 μM, 30 min at 37 °C, Life Technologies Italia, Milan, Italy) and after three washes, were preincubated with increasing concentrations of new compounds (10^−10–10^−4 M) or with the vehicle (methanol) for 30 min at 37 °C.
Then, cells were plated (500,000/well) on coated wells and incubated for 30 min at 37 °C. Afterwards nonadherent cells were removed via washing with a blocking solution, and the remaining adhered cells were lysed with 0.5% Triton X-100 in PBS (30 min at 4 °C). Green fluorescence was measured (Ex485 nm/Em535 nm) using an EnSpire Multimode Plate Reader (PerkinElmer, Waltham, MA, USA).
In both types of adhesion assay, the number of adherent cells was determined via comparison with a standard curve made in the same plate. Experiments were carried out in quadruplicate and repeated at least three times. Data analysis and EC50 or IC50 values were calculated using GraphPad Prism 9.5.1 (GraphPad Software, San Diego, CA, USA).
Cell culture. Jurkat E6.1 (expressing both α4β1 and αLβ2 integrin), K562 (expressing α5β1 integrin) and HL60 (expressing α Mβ2 integrin) cell lines were purchased from ATCC (Rockville, MD, USA); these cells were routinely cultured in RPMI-1640 (Life Technologies) supplemented with 1% glutamine and 10% fetal bovine serum (FBS). Cells were grown at 37 °C under 5% CO 2 humidified atmosphere. […]

α4β1 integrin = biological target: T2, α4β1 integrin (Homo sapiens, UniProt P05556+P13612); experiment: HUTS-21 monoclonal antibody binding (α4β1 integrin conformation), flow cytometry; details: Jurkat E6.1 cells; compounds 1–100 nM; FN 10 µg/mL; versus vehicle
T2 construct: Jurkat E6.1 cell line, which endogenously expresses α4β1 integrin; host or cells: Jurkat E6.1
T2 sequence (P13612 34-1032): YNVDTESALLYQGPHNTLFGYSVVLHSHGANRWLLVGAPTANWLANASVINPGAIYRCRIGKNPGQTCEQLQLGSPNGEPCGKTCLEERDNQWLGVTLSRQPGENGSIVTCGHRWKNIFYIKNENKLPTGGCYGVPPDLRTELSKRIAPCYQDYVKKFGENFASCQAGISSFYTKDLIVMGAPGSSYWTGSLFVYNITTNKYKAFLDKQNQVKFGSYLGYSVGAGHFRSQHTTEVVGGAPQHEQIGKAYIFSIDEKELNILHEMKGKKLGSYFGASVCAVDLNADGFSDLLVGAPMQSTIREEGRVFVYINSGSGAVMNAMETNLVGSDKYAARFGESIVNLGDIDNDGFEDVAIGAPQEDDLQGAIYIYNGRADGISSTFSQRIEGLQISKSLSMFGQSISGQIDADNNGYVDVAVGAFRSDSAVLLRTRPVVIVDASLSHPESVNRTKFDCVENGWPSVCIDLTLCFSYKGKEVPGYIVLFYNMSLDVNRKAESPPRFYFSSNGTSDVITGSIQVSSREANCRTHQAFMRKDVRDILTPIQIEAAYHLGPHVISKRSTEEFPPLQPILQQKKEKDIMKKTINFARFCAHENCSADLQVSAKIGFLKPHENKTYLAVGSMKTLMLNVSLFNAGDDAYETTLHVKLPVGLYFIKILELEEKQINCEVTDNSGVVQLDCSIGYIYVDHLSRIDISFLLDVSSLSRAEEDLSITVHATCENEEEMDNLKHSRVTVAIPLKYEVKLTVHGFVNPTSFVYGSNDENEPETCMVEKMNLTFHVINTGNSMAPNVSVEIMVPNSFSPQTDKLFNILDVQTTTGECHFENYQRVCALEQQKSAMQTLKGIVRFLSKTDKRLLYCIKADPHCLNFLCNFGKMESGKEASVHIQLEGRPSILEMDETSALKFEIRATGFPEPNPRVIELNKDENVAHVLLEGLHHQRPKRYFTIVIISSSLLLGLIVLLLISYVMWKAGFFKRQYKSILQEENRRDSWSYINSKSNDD
T2 sequence (P05556 21-798): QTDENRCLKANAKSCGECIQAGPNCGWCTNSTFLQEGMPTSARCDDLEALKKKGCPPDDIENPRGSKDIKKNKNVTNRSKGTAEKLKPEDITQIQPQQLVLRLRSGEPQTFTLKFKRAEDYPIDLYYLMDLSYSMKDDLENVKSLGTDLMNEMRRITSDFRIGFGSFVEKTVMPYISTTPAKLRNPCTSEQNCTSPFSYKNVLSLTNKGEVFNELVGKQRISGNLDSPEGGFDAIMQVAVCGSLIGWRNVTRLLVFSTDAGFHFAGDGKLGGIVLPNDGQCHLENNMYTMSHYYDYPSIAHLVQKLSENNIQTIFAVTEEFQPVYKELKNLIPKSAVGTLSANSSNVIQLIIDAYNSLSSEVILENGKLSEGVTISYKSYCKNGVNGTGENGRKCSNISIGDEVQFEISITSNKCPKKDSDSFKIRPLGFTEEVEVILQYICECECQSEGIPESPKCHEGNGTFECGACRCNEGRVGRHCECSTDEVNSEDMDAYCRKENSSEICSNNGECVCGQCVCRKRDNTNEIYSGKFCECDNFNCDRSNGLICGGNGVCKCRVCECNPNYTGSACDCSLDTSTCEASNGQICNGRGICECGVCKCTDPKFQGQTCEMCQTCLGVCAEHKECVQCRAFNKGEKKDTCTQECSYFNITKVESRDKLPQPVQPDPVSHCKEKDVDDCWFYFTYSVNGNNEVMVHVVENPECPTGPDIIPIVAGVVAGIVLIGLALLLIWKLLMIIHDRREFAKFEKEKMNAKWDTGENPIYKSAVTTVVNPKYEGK
Text: Integrin functions are regulated by a number of conformational changes in the protein itself. […] Conformational changes can be evaluated by using conformationally sensitive antibodies which specifically recognize epitopes exposed only in a defined structural conformation. To better depict peptidomimetics–α4β1 integrin interactions, we employed PE-conjugated HUTS-21 mAb that recognizes an epitope mapped to the hybrid domain of the β1 subunit.
Conversely, antagonists 3, 8, and 13, although binding to α4β1 integrin as previously shown, were not able to induce any conformational rearrangement, showing very low binding of HUTS-21 mAb.
Flow cytometry analysis was performed as previously described, with the following modifications. Jurkat E6.1 cells were resuspended in 1% BSA in HBSS (50,000 cells/sample); then, FN (10 μg/mL) and two concentrations of the best peptidomimetics (100–1 nM) were added to the cells for 30 min. Thereafter, phycoerythrin (PE)-conjugated, conformational-sensitive HUTS-21 mAb (PE mouse anti-human CD29 antibody, Becton Dickinson Italia, Milan, Italy) (20 μL/sample) was added for 45 min at room temperature; after two washes, Jurkat E6.1 cells were suspended in PBS, and 10,000 cells/sample were acquired in a Guava®EasyCyte Flow Cytometer. The data are presented as the mean fluorescence intensity (MFI). Data were normalized with the relative fluorescence for nonspecific binding evaluated by exposing the cells to an isotype control mAb set to 0.

JNK = experiment: Western blot, FN-induced JNK phosphorylation in Jurkat E6.1 cells; details: Jurkat E6.1 cells pre-treated with 10^−7, 10^−8, 10^−9 M, then FN (10 µg/mL) 30 min
Description: To this purpose, Jurkat E6.1 cells were pre-treated with different concentrations (10^−7, 10^−8, 10^−9 M) of the compounds and then exposed to FN (10 µg/mL) for 30 min. […] In addition, the effects observed on intracellular signaling were concentration-dependent, except for compound 13 on AKT activation.
Western blot analysis was performed as previously described, with the following modifications. […] For integrin antagonists, JurkatE6.1 cells were subsequently incubated with FN (10 μg/mL) at 37 °C for 30 min. At the end of the incubation period, Jurkat E6.1 cells were lysed on ice using T-PER® (Tissue Protein Extraction Reagent, Life Technologies Italia, Milan, Italy), supplemented with a phosphatase inhibitor cocktail. Protein extracts were quantified using a BCA Protein Assay (Pierce, Rockford, IL, USA). The proteins from the cytoplasmatic extract were denatured at 95 °C for 3 min, then equal amounts of protein samples (30–50 μg) were loaded and separated via 12% SDS-PAGE. Proteins were transferred onto a nitrocellulose membrane (Biorad, Hercules, CA, USA), which was blocked with 5% nonfat milk in a Tris-buffered saline (10 mM Tris-HCl, pH 8, containing 150 mM NaCl) containing 0.1% Tween 20 for 1 h at room temperature. Membranes were stained overnight at 4 °C with anti-actin antibody (1:5000, Merck Life Science, Milan, Italy) or with anti-phospho-ERK1/2, anti-total ERK1/2, anti-phospho-AKT, anti-total-AKT, or anti-phospho-JNK antibodies (1:1000; Cell Signaling Technology, Danvers, MA, USA). The membranes were incubated with anti-rabbit peroxidase-conjugated secondary antibodies at a dilution of 1:8000. Blots were developed with a SuperSignal West Pico chemiluminescent substrate. Protocols for digital image acquisition and analysis have previously been described.

T1 sequence (P05107 23-769, other chains not shown): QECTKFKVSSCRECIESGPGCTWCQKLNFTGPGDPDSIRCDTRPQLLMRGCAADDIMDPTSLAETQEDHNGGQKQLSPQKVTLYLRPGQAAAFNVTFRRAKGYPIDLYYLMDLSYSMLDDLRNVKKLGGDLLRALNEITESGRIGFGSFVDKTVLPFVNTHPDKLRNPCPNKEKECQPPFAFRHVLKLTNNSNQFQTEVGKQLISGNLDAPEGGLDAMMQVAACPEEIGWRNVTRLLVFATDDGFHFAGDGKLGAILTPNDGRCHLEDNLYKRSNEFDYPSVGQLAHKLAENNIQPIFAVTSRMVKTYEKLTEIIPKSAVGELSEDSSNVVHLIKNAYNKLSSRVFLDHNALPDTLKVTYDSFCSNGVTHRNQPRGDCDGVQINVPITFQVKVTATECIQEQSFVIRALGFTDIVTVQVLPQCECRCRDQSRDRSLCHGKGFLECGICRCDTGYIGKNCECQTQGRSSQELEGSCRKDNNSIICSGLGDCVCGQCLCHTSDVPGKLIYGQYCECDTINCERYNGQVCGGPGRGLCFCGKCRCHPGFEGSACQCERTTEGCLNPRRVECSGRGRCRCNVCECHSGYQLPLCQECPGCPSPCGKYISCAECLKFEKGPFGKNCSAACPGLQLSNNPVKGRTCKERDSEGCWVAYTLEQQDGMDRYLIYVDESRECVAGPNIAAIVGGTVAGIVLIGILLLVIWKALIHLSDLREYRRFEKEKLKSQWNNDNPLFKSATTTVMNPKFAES

Row | Structure (SMILES) | IC50 (αMβ2 integrin) [nM] | binding of HUTS-21 mAb (MFI) (α4β1 integrin) | FN-induced JNK phosphorylation (JNK) | EC50 (αMβ2 integrin; agonist = increased number of adherent cells) [nM]
1 | CC(=O)N[C@@H](CNC(=O)Cc1ccc(NC(=O)Nc2ccccc2C)cc1)C(=O)NCC(=O)O [compound 3] | 76 | not able to increase the binding of HUTS-21 mAb | did not counteract | 
2 | CCCNC(=O)[C@@H](CC(=O)NCC(=O)O)NC(=O)Cc1ccc(NC(=O)Nc2ccccc2C)cc1 [compound 8] | > 5000 | not able to increase the binding of HUTS-21 mAb | able to significantly prevent | 
3 | Cc1ccccc1NC(=O)Nc1ccc(CNC(=O)C[C@@H](C)NC(=O)CC(=O)O)cc1 [compound 13] |  | not able to increase the binding of HUTS-21 mAb | did not counteract | 285
